Reference: US20210299286A1, “TETRAZINES FOR HIGH CLICK CONJUGATION YIELD IN VIVO AND HIGH CLICK RELEASE YIELD” (Tagworks Pharmaceuticals B.V., priority 2018, published 2021)
Read-outs that look alike come from different tables or passages of the source.

Assays:
CC49-TCO-Dox [1] = assay: In vitro Dox release from CC49-TCO-Dox in PBS; format: biochemical
Protocol: (§1) Doxorubicin (Dox) release from the TCO-linked ADC CC49-TCO-Dox with various TZ activators in PBS and 50% mouse serum at 37° C. was evaluated in vitro as described in Rossin et al. Bioconjug. […] The results of these experiments are depicted in Tables 3 (PBS) and 4 (mouse serum). The release reactions were performed in triplicate unless otherwise stated in the result table.

CC49-TCO-Dox [2] = assay: In vitro Dox release from CC49-TCO-Dox in 50% mouse serum; format: biochemical
Protocol: as §1

AVP0458-TCO-MMAE = assay: MMAE release from diabody ADC with D8-MMAE internal standard (LC-SIM-MS); format: biochemical; conditions: 10 equiv of tetrazine, PBS/plasma (1/1), 37° C., after 24 h, n=3
Protocol: In an alternative method MMAE release from diabody ADC (AVP0458-TCO-MMAE) was determined by using a deuterated internal standard D8-MMAE. ADC (1.1×10^−10 moles bound MMAE) and D8-MMAE (1.1×10^−10 moles) and 10 equiv of tetrazine were incubated in 100 uL PBS/plasma (1/1) at 37° C.

[3] = test system: LS174T human colon carcinoma cells; assay: Cell proliferation (MTT) assay of ADCs with range of tetrazines; format: cell-based; conditions: 3-day incubation
Protocol: Cell proliferation was assessed after a 3-day incubation by means of an MTT assay and was expressed as the % of that obtained without treatment.

[4] = Remark on stability of the free base; format: physicochemical; conditions: intramolecular nucleophilic attack by the amine
[5] = In vitro tetrazine stability (decrease of UV absorbance at 520 nm); format: physicochemical; conditions: read-out: In vitro tetrazine stability (h), t1/2 (converted)
Protocol: The stability of tetrazines was evaluated by dissolving them in 10% MeCN/PBS at 37° C. and following the decrease of the tetrazine UV absorbance at 520 nm in time (Table 4).

[6] = Second-order reaction rate constant with TCO derivative by UV spectroscopy; format: physicochemical; conditions: 25% MeCN/PBS at 20° C.
Protocol: The second-order reaction rate constants were calculated from the rate at which the absorption at 520 nm (specific for the TZ moiety) decreased (Table 4).

Row | Compound | In vitro Dox release (%) from CC49-Dox at 37° C. in PBS: 1 h (CC49-TCO-Dox [1]) [%] | In vitro Dox release (%) from CC49-Dox at 37° C. in PBS: 2 h (CC49-TCO-Dox [1]) [%] | In vitro Dox release (%) from CC49-Dox at 37° C. in PBS: 3 h (CC49-TCO-Dox [1]) [%] | In vitro Dox release (%) from CC49-Dox at 37° C. in PBS: 24 h (CC49-TCO-Dox [1]) [%] | In vitro Dox release (%) from CC49-Dox at 37° C. in 50% mouse serum: 1 h (CC49-TCO-Dox [2]) [%] | In vitro Dox release (%) from CC49-Dox at 37° C. in 50% mouse serum: 2 h (CC49-TCO-Dox [2]) [%] | In vitro Dox release (%) from CC49-Dox at 37° C. in 50% mouse serum: 3 h (CC49-TCO-Dox [2]) [%] | induced MMAE release (%) from AVP0458-TCO-MMAE (AVP0458-TCO-MMAE) [%] | half-life ([5]; 10% MeCN/PBS) [h] | reactivity (k2) [6] [M⁻¹ s⁻¹] | also measured
1 | 3,6-dimethyl-1,2,4,5-tetrazine functional dextran [Compound 2.2] | 44.9 | 51.3 | 54.6 | 62.3 | 34.0 ± 1.2 | 43.4 ± 1.5 | 48.6 ± 1.2 | – | – | – | –
2 | 3-(pyridin-2-yl)-6-methyl-1,2,4,5-tetrazine functional dextran [Compound 3.2] | 44.3 | 44.7 | 47.5 | 45.0 | 36.1 ± 0.1 | 39.8 ± 0.2 | 42.0 ± 0.4 | – | – | – | –
3 | Cc1nnc(-c2ccccn2)nn1 [Compound 3.1, 3-(2-pyridyl)-6-methyl-1,2,4,5-tetrazine] | 55.1 | 55.9 | 58.9 | 59.6 | 53.8 ± 1.7 | 57.1 ± 1.8 | 59.6 ± 2.0 | – | – | – | –
4 | Cc1nnc(-c2ccc(NC(=O)CCCC(=O)NCCOCCOCCOCCOCCOCCOCCOCCOCCOCCOCCOCCNC(=O)CN3CCN(CC(=O)O)CCN(CC(=O)O)CCN(CC(=O)O)CC3)cn2)nn1 [Compound 3.4, 2,2′,2″-(10-(44-((6-(6-methyl-1,2,4,5-tetrazin-3-yl)pyridin-3-yl)amino)-2,40,44-trioxo-6,9,12,15,18,21,24,27,30,33,36-undecaoxa-3,39-diazatetratetracontyl)-1,4,7,10-tetraazacyclododecane-1,4,7-triyl)triacetic acid] | – | – | – | – | – | – | – | 47 ± 0.3 | – | – | cell growth inhibition, combination of ADC and activator ([3]; CC49-TCO-Dox 0.1 μM or AVP0458-TCO-MMAE 1 nM plus activator 1 μM): growth inhibition approached that achieved with the corresponding amount of free drug; cell growth inhibition, activators alone ([3]; activator 1 μM alone): minimal cell growth inhibition
5 | NCCCc1nnc(-c2ncccn2)nn1 [Compound 4.6] | – | – | – | – | – | – | – | – | – | – | stability in free base form [4]: highly unstable
6 | Cc1nnc(-c2nccc(CNC(=O)OC(C)(C)C)n2)nn1 [Compound 4.17] | – | – | – | – | – | – | – | 70 ± 0.1 | 12 | 412 | –
7 | Cc1nnc(-c2cnccn2)nn1 [Compound 4.18] | – | – | – | – | – | – | – | 55 ± 0.8 | 16 | 150 | –
8 | Cc1nnc(-c2ccncn2)nn1 [Compound 4.19] | – | – | – | – | – | – | – | 60 ± 0.1 | – | 290 | half-life ([5]; buffer): 1 h
9 | Cc1nnc(-c2nccnc2C)nn1 [Compound 4.20] | – | – | – | – | – | – | – | 59 ± 0.3 | 15 | 28 | –
